Assay results as given in US11261454B2, “Method for introducing a polynucleotide into non-adhesively growing plant cells” (ScreenSYS GmbH, priority 2010, dated 2022).

Assays:
[1] = system: auxin sensor construst; experiment: Luciferase activity measurement with auxin sensor construct (firefly/renilla ratio); type: cell-based
Excerpt: Our further aim to combine PPTT with amiRNA and other functional screenings such as split-GFP, split-YFP etc. Since co-expression of vectors works perfect, split screenings could be done straight away using confirmed interacting pair. Transformation with the luciferase reporter and subsequent luciferase activity measurements were successfully tested using auxin sensor construst (FIG. 19).

[2] = system: PIN1; experiment: Expression of amiR^PIN1 in stable transgenic lines, plant phenotypes; type: in vivo, Arabidopsis (Col-0 wild-type background); conditions: independent lines
[3] = system: protoplasts from wild type tobacco; experiment: Quantitative analysis of auxin mediated cell expansion of immobilised tobacco protoplasts (automated imaging); type: cell-based; conditions: auxin 0 to 50 μM, at least 200 cells per group
Excerpt: We compared the effect of auxin concentration on cell elongation over a continuous period (4-6 days) using tobacco leaf protoplasts from wild type tobacco and from the tobacco line overexpressing AtPIN8 translationally fused with Venus fluorescent marker protein (PIN8VenusOx). Two strategies were used: • effect of PIN5 and PIN8 expression on cell elongation using transient transformation with dried DNA, protoplast immobilization and culture with manual cell imaging and tracking. • effect of auxin concentration (0, 1 pM, 10 pM, 100 pM, 500 pM, 1 nM, 10 nM, 100 nM, 500 nM, 1 μM, 2.5 μM, 5 μM, 10 μM, 25 μM and 50 μM) and quantitative analysis of cell elongation to compare wild type and PIN8VenusOx protoplasts using automated imaging (every 24 h for 4 days, 5 reference points) and computational image analysis.
Protoplasts were isolated and immobilized using our procedure described in the current patent application. Culture medium with final auxin concentration of 0, 1 pM, 10 pM, 100 pM, 500 pM, 1 nM, 10 nM, 100 nM, 500 nM, 1 μM, 2.5 μM, 5 μM. 10 μM. 25 μM and 50 μM was used for washing steps and cell culture afterwards in corresponding wells. […] This experiment allowed to extract quantitative information for hundreds cells per group, the whole experiment was performed in a single 96-well plate. […]

Compound: O=C(O)Cc1cccc2ccccc12 [NAA]
- effect on firefly/renilla ratio [1]: Concentration-dependent effect

Compound: amiR^P33: artificial miRNA TACGATTTGAACCATGAGGCC, SEQ ID NO:10 (expressed or natural sequence)
- rosette leaf phenotype of transgenic plants ([2]; 2 weeks after germination): Altered phyllotaxis pattern of rosette leaves
- shoot phenotype of transgenic lines [2]: Altered shoot phyllotaxis and pin1-like shoot phenotypes

Compound: auxin
- cell expansion of developing protoplasts [3]: Concentration-depended cell expansion
